Tests used:
Format in all cases: functional
BaF3 = assay: Antiproliferative activity against mouse parental BaF3 cells assessed as cell growth inhibition incubated for 72 hrs by Cell-TiterGlo assay
[1] = Antiproliferative activity against mouse Ba/F3-TEL-JAK1 cells assessed as cell growth inhibition incubated for 72 hrs by Cell-TiterGlo assay
NCI-H1975 = assay: Antiproliferative activity against human NCI-H1975 cells assessed as cell growth inhibition incubated for 72 hrs by Cell-TiterGlo assay
NCI-H2087 = assay: Antiproliferative activity against human NCI-H2087 cells assessed as cell growth inhibition incubated for 72 hrs by Cell-TiterGlo assay

Row | SMILES | GI50 (BaF3) [µM] | GI50 [1] [µM] | GI50 (NCI-H1975) [µM] | GI50 (NCI-H2087) [µM]
1 | COc1nn(C)cc1Nc1ncc2scc(-c3cccc(NC(=O)[C@@H](C)N4CCN(C(=O)C(F)(F)F)CC4)c3)c2n1 | 1.04 | 0.351 | 7.36 | 3.48
2 | C=CC(=O)N1C[C@H](Nc2ncnc3[nH]ccc23)CC[C@@H]1C [RITLECITINIB] | > 50 | > 50 | > 50 | > 50
3 | COc1nn(C)cc1Nc1ncc2scc(-c3cccc(NC(=O)[C@@H]4CCCN4)c3)c2n1 | 3.33 | 1.22 | 8.86 | 3.74
4 | COc1nn(C)cc1Nc1ncc2scc(-c3cccc(NC(=O)[C@@H](C)N4CCN(C(C)=O)CC4)c3)c2n1 | 1.69 | 1.89 | 23.6 | 21.1
5 | C[C@H](C(=O)Nc1cccc(-c2csc3cnc(Nc4cccc(S(C)(=O)=O)c4F)nc23)c1)N1CCN(C)CC1 | 0.677 | 0.641 | 12.6 | 6.28
6 | COc1nn(CCO)cc1Nc1ncc2scc(-c3cccc(NC(=O)[C@@H](C)N4CCN(C)CC4)c3)c2n1 | 1.04 | 0.809 | 10.4 | 5.57
7 | Cc1cc(Nc2ncc3scc(-c4cccc(NC(=O)[C@@H](C)N5CCN(C)CC5)c4)c3n2)n(C)n1 | 4.26 | 1.6 | 7.34 | 7.05
8 | COc1nn(C)cc1Nc1ncc2scc(-c3cccc(NC(=O)[C@H]4CCCN4C4CCN(C)CC4)c3)c2n1 | 2.25 | 1.61 | 11 | 4.26
9 | COc1n[nH]cc1Nc1ncc2scc(-c3cccc(NC(=O)[C@@H](C)N4CCN(C)CC4)c3)c2n1 | 1.24 | 0.62 | 16.5 | 8.62
10 | C[C@H](C(=O)Nc1cccc(-c2csc3cnc(Nc4nnn(C)n4)nc23)c1)N1CCN(C)CC1 | 6.09 | 7.17 | 27.9 | 6.47
11 | C[C@@H]1CCN(C(=O)CC#N)C[C@@H]1N(C)c1ncnc2[nH]ccc12 [TOFACITINIB] | 1.81 | 0.495 | > 50 | > 50
12 | COc1nn(C)cc1Nc1ncc2scc(-c3cccc(NC(=O)[C@H]4CCCN4S(C)(=O)=O)c3)c2n1 | 6.16 | 3.1 | 8.98 | 9.5
13 | COc1nn(C)cc1Nc1ncc2scc(-c3cccc(NC(=O)[C@@H](C)N4CCN(C5COC5)CC4)c3)c2n1 | 6.07 | 6.78 | > 50 | 16.4
14 | Cc1ccc(Nc2ncc3scc(-c4cccc(NC(=O)[C@@H](C)N5CCN(C)CC5)c4)c3n2)c(C)n1 | 7.83 | 5.45 | 27.2 | 6.49
15 | COc1nn(C(C)=O)cc1Nc1ncc2scc(-c3cccc(NC(=O)[C@@H](C)N4CCN(C)CC4)c3)c2n1 | 2.27 | 2.42 | 4.61 | 3.28
16 | COc1nn(C)cc1Nc1ncc2scc(-c3cccc(NC(=O)[C@@H](C)N4CCN(C(C)C)CC4)c3)c2n1 | 1.05 | 0.519 | 15.4 | 3.61
17 | COc1nn(C)cc1Nc1ncc2scc(-c3cccc(NC(=O)[C@@H](C)N4CCN(C(=O)CC#N)CC4)c3)c2n1 | 3.98 | 2.44 | 40.3 | 23.3
18 | Cc1ccc(Nc2ncc3scc(-c4cccc(NC(=O)[C@@H](C)N5CCN(C)CC5)c4)c3n2)cn1 | 2.52 | 0.994 | 9.18 | 2.67
19 | Cc1ncccc1Nc1ncc2scc(-c3cccc(NC(=O)[C@@H](C)N4CCN(C)CC4)c3)c2n1 | 2.74 | 1.97 | 23.1 | 6.42
20 | C=CC(=O)N1CCN([C@H](C)C(=O)Nc2cccc(-c3csc4cnc(Nc5cn(C)nc5OC)nc34)c2)CC1 | 1.62 | 1.7 | 13.5 | 10.5
